Laboratory results reported in patent US20240117269A1, “NOVEL AROMATIC MONOTHIOKETALS AS FRAGRANCE COMPOUNDS” (SYMRISE AG, priority 2019, published 2024).

Experiment: Odor detection threshold (ODT), dynamic olfactometer TO8, expert group, EN 13725
Details: in air
Protocol: The odor perception threshold, i.e. the ODT value (“odor detection threshold”), was determined using a dynamic olfactometer designated TO8 and a group of experts in accordance with the EN 13725 standard, in which an odorous air sample is diluted with clean air. The dilution is presented to the test persons (testers) for evaluation. The odor description was carried out by a group of experts comprising 10 members.

| Structure (SMILES) | ODT value [ng/L] |
| --- | --- |
| CC1OCc2ccccc2S1 (centres unmarked) [2-methyl-4H-3,1-benzoxathiin] | 3.6 |
| c1ccc2c(c1)COCS2 [4H-3,1-benzoxathiin] | 43.6 |
